In patent US9808469B2, “Antitumor activity of multi-kinase inhibitors in triple negative breast cancer” (ENTRECHEM, S.L, priority 2014, dated 2017):

System: MDA-MB-231 cells
Test: Microarray analysis of mRNA and RT-PCR of DNA repair genes
Format: cell-based
Settings: 500 nM, 24 h; confirmed by RT-PCR
Protocol: MDA-MB-231 cells were grown in DMEM with 10% of FBS, and when 70% confluent, cells were treated with 500 nM Formula (III) for 24 h. Total RNA was extracted and purified using the RNeasy Mini Kit (Qiagen). Double-stranded cDNA and biotinylated cRNA were synthesized using a T7-polyT primer and the BioArray RNA labeling kit (Enzo Life Sciences, Farmingdale, N.Y.), respectively. The labeled RNA was fragmented and hybridized to human oligonucleotide arrays (Human Gene ST Arrays) (Affymetrix, Santa Clara, Calif.) according to manufacturers instructions. For the microarray data analysis, Affymetrix CEL files from each of the two microarray hybridization experiments for the two conditions [untreated control and treated with 500 nM Formula (III)] were imported into the dChip software (Dana Farber Cancer Institute, Boston, Mass.). […] The list of genes was analyzed using functional annotation bioinformatics microarray analysis (DAVID), and gene set enrichment analyses (GSEA). […]
Total RNA was extracted from cells with Rneasy Mini Kit (QIAGEN) as recommended by the supplier. cDNAs were synthesized from […] of total RNA by using RevertAid H Minus First Strand cDNA synthesis Kit (Fermentas) in a total volume of […]. […] Samples were analyzed in triplicate and mRNA expression was normalized to GADPH […] and quantified by the comparative cycle threshold (Ct) method. […]

In the case of `C[C@]12O[C@H](C[C@@H](O)[C@H]1O)n1c3ccccc3c3c4c(c5c6ccccc6n2c5c31)C(=O)NC4=O` [Formula (III)], the “expression of genes involved in DNA repair” value is reported as “increased expression of genes involved in DNA repair”.
